Measured values taken from BindingDB's records for doi:10.1016/j.bmcl.2006.02.011 (Zhengzhou University, 2006).

Target: Maltase-glucoamylase (Homo sapiens, UniProt O43451)
Assay: Inhibition of alpha glucosidase

Sequence of Maltase-glucoamylase (O43451 whole entry): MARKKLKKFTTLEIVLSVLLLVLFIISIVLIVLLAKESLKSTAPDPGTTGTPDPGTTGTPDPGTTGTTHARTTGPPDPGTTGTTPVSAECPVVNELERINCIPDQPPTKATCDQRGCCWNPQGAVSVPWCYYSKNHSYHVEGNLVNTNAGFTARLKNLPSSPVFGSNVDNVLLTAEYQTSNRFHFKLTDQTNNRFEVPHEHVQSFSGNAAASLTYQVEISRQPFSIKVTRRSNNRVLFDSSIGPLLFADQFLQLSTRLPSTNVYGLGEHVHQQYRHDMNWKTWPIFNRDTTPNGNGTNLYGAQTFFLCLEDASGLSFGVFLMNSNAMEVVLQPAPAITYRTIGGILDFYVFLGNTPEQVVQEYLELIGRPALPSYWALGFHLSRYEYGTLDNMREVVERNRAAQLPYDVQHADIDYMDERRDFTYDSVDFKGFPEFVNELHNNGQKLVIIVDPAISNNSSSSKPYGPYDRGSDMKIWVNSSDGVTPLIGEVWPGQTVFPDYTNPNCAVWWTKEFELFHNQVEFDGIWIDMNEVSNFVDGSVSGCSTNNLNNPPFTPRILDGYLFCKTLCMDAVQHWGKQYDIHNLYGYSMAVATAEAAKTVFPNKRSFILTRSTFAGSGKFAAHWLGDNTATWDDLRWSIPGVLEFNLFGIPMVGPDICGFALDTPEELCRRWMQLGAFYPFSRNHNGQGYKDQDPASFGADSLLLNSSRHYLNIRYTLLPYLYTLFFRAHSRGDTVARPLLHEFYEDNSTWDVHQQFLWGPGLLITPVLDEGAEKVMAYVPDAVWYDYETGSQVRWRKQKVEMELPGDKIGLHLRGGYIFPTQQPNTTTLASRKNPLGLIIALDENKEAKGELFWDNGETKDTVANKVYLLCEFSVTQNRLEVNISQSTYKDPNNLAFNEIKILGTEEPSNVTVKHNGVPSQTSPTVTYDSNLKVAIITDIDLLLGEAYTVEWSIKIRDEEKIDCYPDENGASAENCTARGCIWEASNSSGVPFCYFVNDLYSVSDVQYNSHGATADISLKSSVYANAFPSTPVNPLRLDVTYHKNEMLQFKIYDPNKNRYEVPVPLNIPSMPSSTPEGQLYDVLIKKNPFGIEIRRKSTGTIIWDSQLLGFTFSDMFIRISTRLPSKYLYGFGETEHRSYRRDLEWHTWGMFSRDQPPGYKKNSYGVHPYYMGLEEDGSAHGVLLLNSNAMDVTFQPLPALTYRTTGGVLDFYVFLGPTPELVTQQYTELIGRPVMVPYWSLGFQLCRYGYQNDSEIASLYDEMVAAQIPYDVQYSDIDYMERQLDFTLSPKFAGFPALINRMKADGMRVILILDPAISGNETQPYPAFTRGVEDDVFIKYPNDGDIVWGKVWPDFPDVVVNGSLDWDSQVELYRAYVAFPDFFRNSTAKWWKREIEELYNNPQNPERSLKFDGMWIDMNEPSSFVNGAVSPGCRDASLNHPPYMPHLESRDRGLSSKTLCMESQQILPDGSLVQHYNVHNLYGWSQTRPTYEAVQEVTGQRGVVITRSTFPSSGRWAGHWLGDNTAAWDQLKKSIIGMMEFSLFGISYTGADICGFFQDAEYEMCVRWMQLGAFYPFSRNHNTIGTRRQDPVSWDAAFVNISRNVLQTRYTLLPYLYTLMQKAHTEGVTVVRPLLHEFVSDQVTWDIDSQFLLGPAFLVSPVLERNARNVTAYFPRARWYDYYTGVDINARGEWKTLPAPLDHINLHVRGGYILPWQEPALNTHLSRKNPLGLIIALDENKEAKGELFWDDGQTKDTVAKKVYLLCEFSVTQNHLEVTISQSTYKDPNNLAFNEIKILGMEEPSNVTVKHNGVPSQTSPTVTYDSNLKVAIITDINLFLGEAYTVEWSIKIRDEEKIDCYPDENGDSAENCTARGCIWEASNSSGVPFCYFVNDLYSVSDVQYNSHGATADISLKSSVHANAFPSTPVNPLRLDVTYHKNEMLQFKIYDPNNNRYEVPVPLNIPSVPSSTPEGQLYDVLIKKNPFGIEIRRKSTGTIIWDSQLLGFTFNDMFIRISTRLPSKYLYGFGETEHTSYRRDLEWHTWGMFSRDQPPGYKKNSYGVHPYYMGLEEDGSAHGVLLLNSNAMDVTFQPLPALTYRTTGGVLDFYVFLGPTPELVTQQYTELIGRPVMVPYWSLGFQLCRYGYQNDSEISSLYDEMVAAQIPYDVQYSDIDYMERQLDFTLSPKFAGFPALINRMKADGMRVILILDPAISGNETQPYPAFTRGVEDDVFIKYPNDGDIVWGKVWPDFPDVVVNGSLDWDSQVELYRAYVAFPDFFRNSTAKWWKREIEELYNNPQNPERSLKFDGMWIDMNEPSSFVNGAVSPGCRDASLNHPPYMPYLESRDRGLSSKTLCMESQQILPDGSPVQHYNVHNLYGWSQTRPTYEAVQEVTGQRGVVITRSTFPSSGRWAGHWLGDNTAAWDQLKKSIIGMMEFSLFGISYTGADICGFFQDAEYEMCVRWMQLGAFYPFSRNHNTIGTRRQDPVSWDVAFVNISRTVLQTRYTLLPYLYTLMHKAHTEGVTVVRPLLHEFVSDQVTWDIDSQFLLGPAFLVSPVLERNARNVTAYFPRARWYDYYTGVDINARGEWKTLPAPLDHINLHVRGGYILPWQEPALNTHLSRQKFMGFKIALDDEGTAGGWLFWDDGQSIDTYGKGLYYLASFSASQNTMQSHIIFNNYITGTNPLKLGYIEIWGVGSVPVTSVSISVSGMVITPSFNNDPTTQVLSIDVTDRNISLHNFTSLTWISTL

Compound | IC50 [µM]
C=C1CC[C@@H]2[C@](C)(CO)[C@H](O)CC[C@@]2(C)[C@@H]1/C=C/C1=CC(=C/C=C/c2ccccc2)/OC1=O [3-(2-((1R,4aS,5R,6R,8aR)-6-hydroxy-5-(hydroxymethyl)-5,8a-dimethyl-2-methylene-decahydronaphthalen-1-yl)vinyl)-5-(3-phenylallylidene)furan-2(5H)-one] | 58
C=C1CC[C@@H]2[C@](C)(CO)[C@H](O)CC[C@@]2(C)[C@@H]1/C=C/C1=CC(=C/CCC)/OC1=O [5-butylidene-3-(2-((1R,4aS,5R,6R,8aR)-6-hydroxy-5-(hydroxymethyl)-5,8a-dimethyl-2-methylene-decahydronaphthalen-1-yl)vinyl)furan-2(5H)-one] | 110
C[C@]1(CO)[C@H]2CC[C@@]3(CO3)[C@@H](/C=C/C3=CC(=C/C=C/c4ccccc4)/OC3=O)[C@]2(C)CC[C@H]1O [(5Z)-3-[(E)-2-[(1S,2S,4aS,5R,6R,8aR)-6-hydroxy-5-(hydroxymethyl)-5,8a-dimethyl-octahydro-1H-spiro[naphthalene-2,2'-oxirane]-1-yl]ethenyl]-5-[(2E)-3-phenylprop-2-en-1-ylidene]-2,5-dihydrofuran-2-one] | 101

The remaining lines, values ahead:

IC50 [µM] | Compound
120 | COc1ccc(/C=C2C=C(/C=C/[C@@H]3[C@@]4(CC[C@@H]5[C@](C)(CO)[C@H](O)CC[C@]53C)CO4)C(=O)O/2)cc1 [(5Z)-3-[(E)-2-[(1S,2S,4aS,5R,6R,8aR)-6-hydroxy-5-(hydroxymethyl)-5,8a-dimethyl-octahydro-1H-spiro[naphthalene-2,2'-oxirane]-1-yl]ethenyl]-5-[(4-methoxyphenyl)methylidene]-2,5-dihydrofuran-2-one]
100 | C=C1CC[C@@H]2[C@]3(C)COC(c4cccc(Br)c4)O[C@@H]3CC[C@@]2(C)[C@@H]1C/C=C1/C(=O)OC[C@H]1O (stereo partly drawn) [(S)-3-(2-((4aR,6aS,7R,10aS,10bR)-3-(3-bromophenyl)-6a,10b-dimethyl-8-methylene-decahydro-1H-naphtho[2,1-d][1,3]dioxin-7-yl)ethylidene)-4-hydroxy-dihydrofuran-2(3H)-one]
101 | C=C1CC[C@@H]2[C@]3(C)COC(c4ccccc4)O[C@@H]3CC[C@@]2(C)[C@@H]1C/C=C1/C(=O)OC[C@H]1O (stereo partly drawn) [(S)-3-(2-((4aR,6aS,7R,10aS,10bR)-6a,10b-dimethyl-8-methylene-3-phenyl-decahydro-1H-naphtho[2,1-d][1,3]dioxin-7-yl)ethylidene)-4-hydroxy-dihydrofuran-2(3H)-one]
